Test results reported in patent US20240140938A1, “PREPARATION OF TETRAHYDROINDAZOLE DERIVATIVES AS NOVEL DIACYLGLYCERIDE O-ACYLTRANSFERASE 2 INHIBITORS” (MERCK SHARP & DOHME LLC, priority 2020, published 2024).

Biological target: human DGAT2 (hDGAT2) (Homo sapiens (Human), UniProt Q96PD7)
Test: DGAT2 Enzymatic Activity Assay
Type: biochemical
Details: hDGAT2 Sf-9 membrane prep; 13C18-triolein product by LC/MS/MS; 25 μM diolein, 5 μM 13C oleoyl-CoA
Outline: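 Enzyme source was membrane fractions from Sf-9 cells infected with untagged hDGAT2 baculovirus. Reactions ran at room temperature, and product 13C18-triolein was quantified by LC/MS/MS against a 13C21-triolein internal standard. % inhibition was normalised to high and low controls, and IC50 derived from it.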

Chain of human DGAT2 (hDGAT2) (Q96PD7 whole entry): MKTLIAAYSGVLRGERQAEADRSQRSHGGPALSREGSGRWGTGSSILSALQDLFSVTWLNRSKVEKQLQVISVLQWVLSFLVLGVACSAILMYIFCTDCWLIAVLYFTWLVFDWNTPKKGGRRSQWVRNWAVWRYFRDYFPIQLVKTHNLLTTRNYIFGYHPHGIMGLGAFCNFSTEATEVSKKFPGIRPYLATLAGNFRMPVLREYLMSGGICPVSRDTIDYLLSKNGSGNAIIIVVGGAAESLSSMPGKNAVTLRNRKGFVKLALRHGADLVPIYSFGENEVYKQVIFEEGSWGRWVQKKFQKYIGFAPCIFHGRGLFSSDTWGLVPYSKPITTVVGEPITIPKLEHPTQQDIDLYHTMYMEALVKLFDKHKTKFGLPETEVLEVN

| SMILES | IC50 [nM] |
| --- | --- |
| CC(C)n1nc(-c2cccc(OC(F)F)c2)c2c1C[C@H](C(=O)NCc1cccnc1)CC2 [Example 62, (R)-3-(3-(difluoromethoxy)phenyl)-1-isopropyl-N-(pyridin-3-ylmethyl)-4,5,6,7-tetrahydro-1H-indazole-6-carboxamide] | 8190 |
| CC(C)n1nc(-c2cccc(OC(F)F)c2)c2c1C[C@H](C(=O)NCc1cnoc1)CC2 [Example 63, (R)-3-(3-(difluoromethoxy)phenyl)-1-isopropyl-N-(isoxazol-4-ylmethyl)-4,5,6,7-tetrahydro-1H-indazole-6-carboxamide] | 4560 |
| CC(C)n1nc(-c2cccc(OC(F)F)c2)c2c1C[C@H](C(=O)N[C@@H](C)CO)CC2 [Example 65, (R)-3-(3-(difluoromethoxy)phenyl)-N-((S)-1-hydroxypropan-2-yl)-1-isopropyl-4,5,6,7-tetrahydro-1H-indazole-6-carboxamide] | 7260 |
| COCC(C)(C)NC(=O)[C@@H]1CCc2c(-c3cccc(OC(F)F)c3)nn(C(C)C)c2C1 [Example 66, (R)-3-(3-(difluoromethoxy)phenyl)-1-isopropyl-N-(1-methoxy-2-methylpropan-2-yl)-4,5,6,7-tetrahydro-1H-indazole-6-carboxamide] | 1330 |
| Cc1nnc(NC(=O)[C@@H]2CCc3c(-c4cccc(OC(F)F)c4)nn(C4CCOCC4)c3C2)s1 [Example 67, (R)-3-(3-(difluoromethoxy)phenyl)-N-(5-methyl-1,3,4-thiadiazol-2-yl)-1-(tetrahydro-2H-pyran-4-yl)-4,5,6,7-tetrahydro-1H-indazole-6-carboxamide] | > 10000 |
| CC(C)n1nc(-c2cncc(OC(F)F)c2)c2c1C[C@H](C(=O)N[C@@H](C)CN1CCO[C@H](C)C1)CC2 [Example 68, (R)-3-(5-(difluoromethoxy)pyridin-3-yl)-1-isopropyl-N-((S)-1-((R)-2-methylmorpholino)propan-2-yl)-4,5,6,7-tetrahydro-1H-indazole-6-carboxamide] | > 10000 |
| CC(C)n1nc(-c2cccc(OC(F)F)c2)c2c1C[C@H](C(=O)NCCN1CCS(=O)(=O)CC1)CC2 [Example 70, (R)-3-(3-(difluoromethoxy)phenyl)-N-(2-(1,1-dioxidothiomorpholino)ethyl)-1-isopropyl-4,5,6,7-tetrahydro-1H-indazole-6-carboxamide] | 18000 |
| CNS(=O)(=O)CCNC(=O)[C@@H]1CCc2c(-c3cccc(OC(F)F)c3)nn(C(C)C)c2C1 [Example 71, (R)-3-(3-(difluoromethoxy)phenyl)-1-isopropyl-N-(2-(N-methylsulfamoyl)ethyl)-4,5,6,7-tetrahydro-1H-indazole-6-carboxamide] | > 10000 |
| CC(=O)n1nc(-c2cccc(OC(F)F)c2)c2c1C[C@H](C(=O)N[C@@]1(C)CCS(=O)(=O)C1)CC2 [Example 73, (R)-1-acetyl-3-(3-(difluoromethoxy)phenyl)-N-((S)-3-methyl-1,1-dioxidotetrahydrothiophen-3-yl)-4,5,6,7-tetrahydro-1H-indazole-6-carboxamide] | > 10000 |
| C[C@]1(NC(=O)[C@@H]2CCc3c(-c4cccc(OC(F)F)c4)nn(C(=O)C4CC4)c3C2)CCS(=O)(=O)C1 [Example 74, (R)-1-(cyclopropanecarbonyl)-3-(3-(difluoromethoxy)phenyl)-N-((S)-3-methyl-1,1-dioxidotetrahydrothiophen-3-yl)-4,5,6,7-tetrahydro-1H-indazole-6-carboxamide] | 2910 |
| C[C@]1(NC(=O)[C@@H]2CCc3c(-c4cccc(OC(F)F)c4)nn(C(=O)C4CCOCC4)c3C2)CCS(=O)(=O)C1 [Example 75, (R)-3-(3-(difluoromethoxy)phenyl)-N-((S)-3-methyl-1,1-dioxidotetrahydrothiophen-3-yl)-1-(tetrahydro-2H-pyran-4-carbonyl)-4,5,6,7-tetrahydro-1H-indazole-6-carboxamide] | > 10000 |
| C[C@]1(NC(=O)[C@@H]2CCc3c(-c4cccc(OC(F)F)c4)nn(C(=O)c4ccccc4)c3C2)CCS(=O)(=O)C1 [Example 76, (R)-1-benzoyl-3-(3-(difluoromethoxy)phenyl)-N-((S)-3-methyl-1,1-dioxidotetrahydrothiophen-3-yl)-4,5,6,7-tetrahydro-1H-indazole-6-carboxamide] | 2740 |
| C[C@]1(NC(=O)[C@@H]2CCc3c(-c4cccc(OC(F)F)c4)nn(CC4CCOCC4)c3C2)CCS(=O)(=O)C1 [Example 78, (R)-3-(3-(difluoromethoxy)phenyl)-N-((S)-3-methyl-1,1-dioxidotetrahydrothiophen-3-yl)-1-((tetrahydro-2H-pyran-4-yl)methyl)-4,5,6,7-tetrahydro-1H-indazole-6-carboxamide] | > 10000 |

Compounds with a lower IC50, results first:

| IC50 [nM] | SMILES |
| --- | --- |
| 1.8 | CCOc1ccc(F)c(-c2nn(C(C)C)c3c2CC[C@@H](C(=O)NC2(C)CCS(=O)(=O)CC2)C3)c1 [Example 54, (R)-3-(5-ethoxy-2-fluorophenyl)-1-isopropyl-N-(4-methyl-1,1-dioxidotetrahydro-2H-thiopyran-4-yl)-4,5,6,7-tetrahydro-1H-indazole-6-carboxamide] |
| 86.6 | CC(C)n1nc(-c2cccc(OC(F)(F)F)c2)c2c1C[C@H](C(=O)NC1(C)CCS(=O)(=O)CC1)CC2 [Example 55, (R)-1-isopropyl-N-(4-methyl-1,1-dioxidotetrahydro-2H-thiopyran-4-yl)-3-(3-(trifluoromethoxy)phenyl)-4,5,6,7-tetrahydro-1H-indazole-6-carboxamide] |
| 414 | CC(C)n1nc(-c2cncc(OC(F)F)c2)c2c1C[C@H](C(=O)NC1(C)CCS(=O)(=O)CC1)CC2 [Example 56, (R)-3-(5-(difluoromethoxy)pyridin-3-yl)-1-isopropyl-N-(4-methyl-1,1-dioxidotetrahydro-2H-thiopyran-4-yl)-4,5,6,7-tetrahydro-1H-indazole-6-carboxamide] |
| 22.8 | CC1(NC(=O)[C@@H]2CCc3c(-c4cc(OC(F)F)ccc4F)nn(C4CCC4)c3C2)CS(=O)(=O)C1 [Example 57, (R)-1-cyclobutyl-3-(5-(difluoromethoxy)-2-fluorophenyl)-N-(3-methyl-1,1-dioxidothietan-3-yl)-4,5,6,7-tetrahydro-1H-indazole-6-carboxamide] |
| 61 | CCOC(=O)N1CCC(C)(NC(=O)[C@@H]2CCc3c(-c4cc(OC(F)F)ccc4F)nn(C(C)C)c3C2)C1 (stereo partly drawn) [Example 59, ethyl 3-((R)-3-(5-(difluoromethoxy)-2-fluorophenyl)-1-isopropyl-4,5,6,7-tetrahydro-1H-indazole-6-carboxamido)-3-methylpyrrolidine-1-carboxylate] |
| 29.2 | CC(C)NC(=O)N1CCC(C)(NC(=O)[C@@H]2CCc3c(-c4cc(OC(F)F)ccc4F)nn(C(C)C)c3C2)C1 (stereo partly drawn) [Example 60, (6R)-3-(5-(difluoromethoxy)-2-fluorophenyl)-1-isopropyl-N-(1-(isopropylcarbamoyl)-3-methylpyrrolidin-3-yl)-4,5,6,7-tetrahydro-1H-indazole-6-carboxamide] |
| 26.2 | CC(C)n1nc(-c2cc(OC(F)F)ccc2F)c2c1C[C@H](C(=O)NC1(C)CCN(C(=O)C3CC3)C1)CC2 (stereo partly drawn) [Example 61, (6R)-N-(1-(cyclopropanecarbonyl)-3-methylpyrrolidin-3-yl)-3-(5-(difluoromethoxy)-2-fluorophenyl)-1-isopropyl-4,5,6,7-tetrahydro-1H-indazole-6-carboxamide] |
| 622 | CC(C)N1CCC(NC(=O)[C@@H]2CCc3c(-c4cc(OC(F)F)ccc4F)nn(C(C)C)c3C2)C1=O (stereo partly drawn) [Example 64, (6R)-3-(5-(difluoromethoxy)-2-fluorophenyl)-1-isopropyl-N-(1-isopropyl-2-oxopyrrolidin-3-yl)-4,5,6,7-tetrahydro-1H-indazole-6-carboxamide] |
| 90 | CCC1(NC(=O)[C@@H]2CCc3c(-c4cccc(OC(F)F)c4)nn(C(C)C)c3C2)CS(=O)(=O)C1 [Example 69, (R)-3-(3-(difluoromethoxy)phenyl)-N-(3-ethyl-1,1-dioxidothietan-3-yl)-1-isopropyl-4,5,6,7-tetrahydro-1H-indazole-6-carboxamide] |
| 577 | C[C@]1(NC(=O)[C@@H]2CCc3c(-c4cccc(OC(F)F)c4)nn(Cc4ccccc4)c3C2)CCS(=O)(=O)C1 [Example 77, (R)-1-benzyl-3-(3-(difluoromethoxy)phenyl)-N-((S)-3-methyl-1,1-dioxidotetrahydrothiophen-3-yl)-4,5,6,7-tetrahydro-1H-indazole-6-carboxamide] |
| 59.1 | CC(C#N)n1nc(-c2cc(OC(F)F)ccc2F)c2c1C[C@H](C(=O)NC1(C)CS(=O)(=O)C1)CC2 (stereo partly drawn) [Example 79, (6R)-1-(1-cyanoethyl)-3-(5-(difluoromethoxy)-2-fluorophenyl)-N-(3-methyl-1,1-dioxidothietan-3-yl)-4,5,6,7-tetrahydro-1H-indazole-6-carboxamide] |
| 174 | CC(c1nccs1)n1nc(-c2cc(OC(F)F)ccc2F)c2c1C[C@H](C(=O)NC1(C)CS(=O)(=O)C1)CC2 (stereo partly drawn) [Example 80, (6R)-3-(5-(difluoromethoxy)-2-fluorophenyl)-N-(3-methyl-1,1-dioxidothietan-3-yl)-1-(1-(thiazol-2-yl)ethyl)-4,5,6,7-tetrahydro-1H-indazole-6-carboxamide] |
| 24.5 | CC(C)Oc1ccc(F)c(-c2nn(C(C)C)c3c2CC[C@@H](C(=O)NC2(C)CS(=O)(=O)C2)C3)c1 [Example 81, (R)-3-(2-fluoro-5-isopropoxyphenyl)-1-isopropyl-N-(3-methyl-1,1-dioxidothietan-3-yl)-4,5,6,7-tetrahydro-1H-indazole-6-carboxamide] |
| 30.8 | CC(C)n1nc(-c2cc(OC(F)F)ccc2F)c2c1C[C@H](C(=O)NC1(C)CS(=O)(=O)C1)CC2 [Example 82, (R)-3-(5-(difluoromethoxy)-2-fluorophenyl)-1-isopropyl-N-(3-methyl-1,1-dioxidothietan-3-yl)-4,5,6,7-tetrahydro-1H-indazole-6-carboxamide] |
